Experiment [1] in a line: Displacement of 125 I-gastrin from gastrin receptor of guinea pig gastric glands.
Experiment in experiment [2]: as above
The source holds these as a separate data set.

A short description of experiment [3]: Displacement of [125 I] CCK-8 from Cholecystokinin type B receptor of guinea pig cerebral cortex.

Molecules are shown by their SMILES.

By IC50 is commonly meant the concentration at which inhibition is half-maximal. A high value points to lower potency. `CCOC(=O)CN1C(=O)C(NC(=O)Nc2ccc(Cl)cc2)N=C(c2ccccc2F)c2ccccc21` (centres undefined) came in with an IC50 in experiment [1] of 4.1 nM.

Take `O=C(Nc1ccc(Cl)cc1)NC1N=C(c2ccccc2F)c2ccccc2NC1=O` (centres undefined): the IC50 is 640 nM in experiment [2] and 300 nM in experiment [3].

As to `CN1C(=O)[C@@H](NC(=O)c2ccc(Cl)cc2)N=C(c2ccccc2F)c2ccccc21`, the half-maximal inhibitory concentration (IC50) in experiment [2] was 2500 nM; in experiment [3] it was 2900 nM.

`CN1C(=O)[C@H](NC(=O)c2ccc(Cl)cc2)N=C(c2ccccc2F)c2ccccc21`: the IC50 in experiment [1] amounted to 7600 nM; in experiment [3], 11000 nM.

Consider `CN1C(=O)C(NC(=O)Nc2ccc(Cl)cc2)N=C(c2ccccc2)c2ccccc21` [(R)-1-(4-Chloro-phenyl)-3-(1-methyl-2-oxo-5-phenyl-2,3-dihydro-1H-benzo[e][1,4]diazepin-3-yl)-urea], for which the figures for the IC50 in experiment [1] and in experiment [3] were 22 nM and 23 nM, respectively.

For the origin of these results see BindingDB's records for doi:10.1021/jm00121a004 (Merck Sharp & Dohme Research Laboratories, 1989).
